In PubChem BioAssay (NCI):
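Five concentrations, 48 hours, 96-well plates. GI50 is the concentration that inhibits growth by half. TGI: concentration producing complete growth inhibition.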

Tests used:
Experiment in all cases: DTP human tumour cell line panel, 48 h
MCF7 breast = tested on: MCF7 breast
MALME-3M melanoma = tested on: MALME-3M melanoma
CAKI-1 renal = tested on: CAKI-1 renal
IGROV1 ovarian = tested on: IGROV1 ovarian
SR leukemia = tested on: SR leukemia
UACC-257 melanoma = tested on: UACC-257 melanoma
SF-268 CNS = tested on: SF-268 CNS
SW-620 colon = tested on: SW-620 colon
NCI-H522 lung = tested on: NCI-H522 lung
PC-3 prostate = tested on: PC-3 prostate
EKVX NSCLC = tested on: EKVX NSCLC
HCT-15 colon = tested on: HCT-15 colon
LOX IMVI melanoma = tested on: LOX IMVI melanoma
DU-145 prostate = tested on: DU-145 prostate
SF-539 CNS = tested on: SF-539 CNS
K-562 leukemia = tested on: K-562 leukemia
HS 578T breast = tested on: HS 578T breast
NCI-H23 lung = tested on: NCI-H23 lung
SF-295 CNS = tested on: SF-295 CNS
SK-MEL-28 melanoma = tested on: SK-MEL-28 melanoma
MDA-MB-435 = tested on: MDA-MB-435
M14 melanoma = tested on: M14 melanoma
MOLT-4 leukemia = tested on: MOLT-4 leukemia
RPMI-8226 leukemia = tested on: RPMI-8226 leukemia
HOP-92 NSCLC = tested on: HOP-92 NSCLC
UO-31 renal = tested on: UO-31 renal
A549 NSCLC = tested on: A549 NSCLC
BT-549 breast = tested on: BT-549 breast

In the case of `COc1ccc2nc(Cl)c(-c3cc(-c4ccccc4)nc(N)n3)cc2c1`, the GI50 (MCF7 breast) is reported as 2.82 µM, the TGI (MCF7 breast) is reported as 12.8 µM and the GI50 (MALME-3M melanoma) is reported as 12.2 µM. For the same compound, the TGI (MALME-3M melanoma) was 27.4 µM, the GI50 (CAKI-1 renal) was 20.5 µM and the TGI (CAKI-1 renal) was 71.4 µM. It also gave a GI50 (IGROV1 ovarian) of 8.04 µM, a TGI (IGROV1 ovarian) of 23.7 µM and a GI50 (SR leukemia) of 0.605 µM. For the same compound, the TGI (SR leukemia) was > 100 µM, the GI50 (UACC-257 melanoma) was 19 µM and the TGI (UACC-257 melanoma) was 66.5 µM. For the same compound, the GI50 (SF-268 CNS) was 28.1 µM, the TGI (SF-268 CNS) was > 100 µM and the GI50 (SW-620 colon) was 2.8 µM. The TGI (SW-620 colon) was 8.76 µM, the GI50 (NCI-H522 lung) was 11.7 µM and the TGI (NCI-H522 lung) was 27.4 µM. For the same compound, the GI50 (PC-3 prostate) was 5.79 µM, the TGI (PC-3 prostate) was > 100 µM and the GI50 (EKVX NSCLC) was 16.9 µM. The TGI (EKVX NSCLC) was 72.2 µM, the GI50 (HCT-15 colon) was 2.67 µM and the TGI (HCT-15 colon) was 8.1 µM. For the same compound, the GI50 (LOX IMVI melanoma) was 1.92 µM, the TGI (LOX IMVI melanoma) was 4.23 µM and the GI50 (DU-145 prostate) was 4.03 µM. The TGI (DU-145 prostate) was > 100 µM, the GI50 (SF-539 CNS) was 1.89 µM and the TGI (SF-539 CNS) was 3.92 µM. The GI50 (K-562 leukemia) was 3.21 µM, the TGI (K-562 leukemia) was > 100 µM and the GI50 (HS 578T breast) was 20.8 µM. For the same compound, the TGI (HS 578T breast) was > 100 µM, the GI50 (NCI-H23 lung) was 6.53 µM and the TGI (NCI-H23 lung) was 23.4 µM. The GI50 (SF-295 CNS) was 11.4 µM, the TGI (SF-295 CNS) was 36.1 µM and the GI50 (SK-MEL-28 melanoma) was 14.6 µM. The TGI (SK-MEL-28 melanoma) was 33.8 µM, the GI50 (MDA-MB-435) was 12.8 µM and the TGI (MDA-MB-435) was 33 µM. It also gave a GI50 (M14 melanoma) of 4.33 µM, a TGI (M14 melanoma) of 25.9 µM and a GI50 (MOLT-4 leukemia) of 1.74 µM. For the same compound, the TGI (MOLT-4 leukemia) was > 100 µM, the GI50 (RPMI-8226 leukemia) was 3.31 µM and the TGI (RPMI-8226 leukemia) was > 100 µM. The GI50 (HOP-92 NSCLC) was 11.3 µM, the TGI (HOP-92 NSCLC) was 62 µM and the GI50 (UO-31 renal) was 4.3 µM. The TGI (UO-31 renal) was 17.6 µM, the GI50 (A549 NSCLC) was 21.5 µM and the TGI (A549 NSCLC) was > 100 µM. It also gave a GI50 (BT-549 breast) of 1.54 µM and a TGI (BT-549 breast) of 3.32 µM.
